Measurements taken from the NIST ThermoML archive (doi:10.1016/j.jct.2017.08.032).

CCCC[n+]1ccn(C)c1.O=S(=O)([N-]S(=O)(=O)C(F)(F)F)C(F)(F)F
101.33 kPa, Liquid
Details | mass density, Vibrating tube method [kg/m3] | viscosity, Falling or rolling sphere viscometry [mPa·s]
283.15 K | 1448 | 88.06
293.15 K | 1438 | 54.17
303.15 K | 1428 | 35.88
313.15 K | 1418 | 25.32
323.15 K | 1408 | 18.69
333.15 K | 1399 | 14.34
343.15 K | 1390 | 11.22
353.15 K | 1379 | 8.99
363.15 K | 1370 | 7.38

CCC[N+]1(C)CCCCC1.O=S(=O)([N-]S(=O)(=O)C(F)(F)F)C(F)(F)F
101.33 kPa
Details | mass density [kg/m3] | viscosity [mPa·s]
283.15 K, Metastable liquid, Falling or rolling sphere viscometry | – | 350.3
283.15 K, Metastable liquid, Vibrating tube method | 1422 | –
293.15 K, Falling or rolling sphere viscometry, Liquid | – | 174.4
293.15 K, Vibrating tube method, Liquid | 1413 | –
303.15 K, Falling or rolling sphere viscometry, Liquid | – | 99.68
303.15 K, Vibrating tube method, Liquid | 1404 | –
313.15 K, Falling or rolling sphere viscometry, Liquid | – | 62.11
313.15 K, Vibrating tube method, Liquid | 1395 | –
323.15 K, Falling or rolling sphere viscometry, Liquid | – | 40.78
323.15 K, Vibrating tube method, Liquid | 1386 | –
333.15 K, Falling or rolling sphere viscometry, Liquid | – | 29.14
333.15 K, Vibrating tube method, Liquid | 1379 | –
343.15 K, Falling or rolling sphere viscometry, Liquid | – | 21.36
343.15 K, Vibrating tube method, Liquid | 1371 | –
353.15 K, Falling or rolling sphere viscometry, Liquid | – | 16.25
353.15 K, Vibrating tube method, Liquid | 1363 | –
363.15 K, Falling or rolling sphere viscometry, Liquid | – | 12.75
363.15 K, Vibrating tube method, Liquid | 1353 | –

CCn1cc[n+](C)c1.O=S(=O)([N-]S(=O)(=O)C(F)(F)F)C(F)(F)F
101.33 kPa, Liquid
Details | mass density, Vibrating tube method [kg/m3] | viscosity, Falling or rolling sphere viscometry [mPa·s]
283.15 K | 1531 | 56.17
293.15 K | 1521 | 37.23
303.15 K | 1510 | 26.55
313.15 K | 1500 | 19.6
323.15 K | 1491 | 15.01
333.15 K | 1483 | 11.84
343.15 K | 1474 | 9.57
353.15 K | 1465 | 7.9
363.15 K | 1455 | 6.65

CCCCn1cc[n+](C)c1.CCOS(=O)(=O)[O-] [1-butyl-3-methyl-1H-imidazolium ethyl sulfate]
101.33 kPa, Liquid
Details | mass density, Vibrating tube method [kg/m3] | viscosity, Falling or rolling sphere viscometry [mPa·s]
283.15 K | 1193 | 672.1
293.15 K | 1186 | 334
303.15 K | 1180 | 181
313.15 K | 1173 | 110.3
323.15 K | 1166 | 70.37
333.15 K | 1160 | 47.41
343.15 K | 1153 | 33.67
353.15 K | 1146 | 24.88
363.15 K | 1139 | 19.11

CCCCn1cc[n+](C)c1.F[P-](F)(F)(F)(F)F [1-butyl-3-methylimidazolium hexafluorophosphate]
101.33 kPa, Liquid
Details | mass density, Vibrating tube method [kg/m3] | viscosity, Falling or rolling sphere viscometry [mPa·s]
283.15 K | 1380 | 779.5
293.15 K | 1372 | 345.1
303.15 K | 1363 | 185.1
313.15 K | 1354 | 109.6
323.15 K | 1346 | 69.7
333.15 K | 1339 | 46.59
343.15 K | 1332 | 32.67
353.15 K | 1323 | 23.85
363.15 K | 1314 | 18.03

CCCCn1cc[n+](C)c1.O=S(=O)([O-])C(F)(F)F [1-butyl-3-methylimidazolium trifluoromethanesulfonate]
101.33 kPa, Liquid
Details | mass density, Vibrating tube method [kg/m3] | viscosity, Falling or rolling sphere viscometry [mPa·s]
283.15 K | 1309 | 183.3
293.15 K | 1301 | 106.5
303.15 K | 1293 | 66.58
313.15 K | 1285 | 44.45
323.15 K | 1277 | 31.17
333.15 K | 1270 | 22.81
343.15 K | 1262 | 17.24
353.15 K | 1254 | 13.48
363.15 K | 1247 | 10.73

C[N+](C)(C)CCO.O=S(=O)([N-]S(=O)(=O)C(F)(F)F)C(F)(F)F [choline bis(trifluoromethylsulfonyl)imide]
101.33 kPa
Details | mass density [kg/m3] | viscosity [mPa·s]
293.15 K, Metastable liquid, Falling or rolling sphere viscometry | – | 187.9
293.15 K, Metastable liquid, Vibrating tube method | 1539 | –
303.15 K, Metastable liquid, Falling or rolling sphere viscometry | – | 111.5
303.15 K, Metastable liquid, Vibrating tube method | 1530 | –
313.15 K, Falling or rolling sphere viscometry, Liquid | – | 71.05
313.15 K, Vibrating tube method, Liquid | 1520 | –
323.15 K, Falling or rolling sphere viscometry, Liquid | – | 47.94
323.15 K, Vibrating tube method, Liquid | 1511 | –
333.15 K, Falling or rolling sphere viscometry, Liquid | – | 34.09
333.15 K, Vibrating tube method, Liquid | 1504 | –
343.15 K, Falling or rolling sphere viscometry, Liquid | – | 25.6
343.15 K, Vibrating tube method, Liquid | 1495 | –
353.15 K, Falling or rolling sphere viscometry, Liquid | – | 19.61
353.15 K, Vibrating tube method, Liquid | 1486 | –
363.15 K, Falling or rolling sphere viscometry, Liquid | – | 15.43
363.15 K, Vibrating tube method, Liquid | 1476 | –
